# Test system: men and women with overactive bladder
# Assay: Phase 3 study of vibegron 75 mg vs placebo and tolterodine ER 4 mg, 12 weeks, efficacy (voiding and urine volume diary)
# Format: in vivo, human
# Settings: for Patients with at Least 75% Reduction in Total Incontinence, Adjusted (%) / Patients with at Least 75% Reduction in Total Incontinence, Adjusted n / Patients with at Least 75% Reduction in Total Incontinence, Unadjusted (%) / Patients with at Least 75% Reduction in Total Incontinence, Unadjusted n / Total Incontinence 75% responders, Active - Placebo CMH Difference: FAS-I
# Description: Enrollment of patients included individuals with OAB Wet (those with UUI, the involuntary loss of urine accompanied by urgency) and OAB Dry (those without UUI). A total of 1,518 patients were randomized across 215 study sites into one of three groups for a 12-week treatment period.
# The study consisted of a Screening Period (1 to 5 weeks), a single-blind Run-in Period (2 weeks), a randomized double-blind Treatment Period (12 weeks), and a Follow-up Period (4 weeks).
# Tolterodine ER 4 mg was the active control. […] Between the Baseline and Week 12 Visits, patients had study assessments at Week 4 and Week 8.
# The Patient Voiding Diary was used by participants (via the eDiary or paper Diary) to record the frequency of daily OAB symptoms including all micturitions, urgency, incontinence, and main reason for incontinence by selecting the respective box for each symptom occurring during the course of a given day and night.
# Urine volume data were collected separately by patients using the Urine Volume component of the eDiary, or the paper Urine Volume Chart. The Urine Volume Chart is a tool used in clinical practice and clinical investigation to assess voiding functions over a 24-hour period and is regarded as a useful instrument in the investigation of patients with voiding symptoms. Urine volume may be collected during any one (1) of the 7 Diary Days prior to the visit, and it should be recorded for ˜24 hours starting from the time the patient gets up for the day and continues until the time the patient gets up for the day on the next day.
# For the purpose of this study, the number of micturitions was defined as the number of times a patient has voided in the toilet as indicated on the Patient Voiding Diary. Average daily micturitions were calculated using the daily entries in the Patient Voiding Diary, which was completed over the 7 days prior to each study visit. Average daily number of micturitions were calculated as the total number of micturitions that occurred on a Complete Diary Day divided by the number of Complete Diary Days in the Patient Voiding Diary. A complete diary day required confirmation by the patient in the Patient Voiding Diary that all voids and leakages had been recorded for the diary day. Baseline was defined as the average number of micturitions occurring during the last evaluable diary prior to the Baseline Visit.
# The number of UUI episodes was defined as the number of times a patient had checked “urge” as the reason for accidental urine leakage. Average daily UUI episodes at each study visit were calculated in the same manner as described above for the micturition endpoint. The UUI endpoint were analyzed using only OAB Wet patients.
# For the analysis of the co-primary endpoints (change from baseline in average number of daily micturitions at Week 12 and change from baseline in average number of daily urge urinary incontinence episodes at Week 12, and placebo adjustment of each), a mixed model for repeated measure (MMRM) with restricted maximum likelihood estimation was used. This model corrects for dropout and accounts for the fact that measurements taken on the same patient over time tend to be correlated by using all available information on patients within the same covariate set to derive an estimate of the treatment effect for a dropout-free population. The analysis model for each efficacy endpoint includes terms for treatment, visit, OAB Type (Wet vs Dry), Sex (Female vs Male), Region (US vs Rest of World), baseline score, and interaction of visit by treatment.
# Primary inferences were drawn from treatment differences for the changes from baseline derived from the MMRM models at Week 12. As part of secondary objectives, the treatment differences for each post baseline visit were also derived using the same MMRM model. […]
# [1] = subjects with prior ACH use, vibegron 75 mg, Week 12
# [2] = vibegron 75 mg or tolterodine ER 4 mg
# [3] = vibegron 75 mg or tolterodine ER 4 mg once daily
# [4] = vibegron 75 mg or tolterodine ER 4 mg once daily, OAB Wet
# [5] = vibegron 75 mg or tolterodine ER 4 mg, OAB Wet
smiles,measurement,setting,value
"O=C(Nc1ccc(C[C@@H]2CC[C@H]([C@H](O)c3ccccc3)N2)cc1)[C@@H]1CCc2nccc(=O)n21 [Vibegron, (6S)-N-[4-[[(2S,5R)−5-[(R)-hydroxy(phenyl)methyl]pyrrolidin−2-yl]methyl]phenyl]−4-oxo−7,8-dihydro−6H-pyrrolo[1,2-a]pyrimidine−6-carboxamide]","UUI Episodes, change at Week 12, mean (SD)","Week 12, subpopulation Age ≥65 years",−1.94 (2.50)
same,"Daily Urgency, change at Week 12","Week 12, subpopulation Age ≥65 years, posthoc analysis",−2.7
same,Micturitions: Week 12 CFB Mean (descriptive statistics),"Week 12, ≥65 yrs",−2.10
same,"Patients with at Least 75% Reduction in Total Incontinence, Adjusted (%)",baseline to Week 2,22.1%
same,"Patients with at Least 75% Reduction in Total Incontinence, Adjusted n",baseline to Week 2,89
same,"Patients with at Least 75% Reduction in Total Incontinence, Unadjusted (%)",baseline to Week 2,23.6%
same,"Patients with at Least 75% Reduction in Total Incontinence, Unadjusted n",baseline to Week 2,95
same,"Total Incontinence 75% responders, Active - Placebo CMH Difference",baseline to Week 2,9.3
same,"Patients with at Least 75% Reduction in Total Incontinence, Adjusted (%)",baseline to Week 4,31.5%
same,"Patients with at Least 75% Reduction in Total Incontinence, Adjusted n",baseline to Week 4,127
same,"Patients with at Least 75% Reduction in Total Incontinence, Unadjusted (%)",baseline to Week 4,34.5%
same,"Patients with at Least 75% Reduction in Total Incontinence, Unadjusted n",baseline to Week 4,139
same,"Total Incontinence 75% responders, Active - Placebo CMH Difference",baseline to Week 4,11.8
same,"Patients with at Least 75% Reduction in Total Incontinence, Adjusted (%)",baseline to Week 8,42.0%
same,"Patients with at Least 75% Reduction in Total Incontinence, Adjusted n",baseline to Week 8,169
same,"Patients with at Least 75% Reduction in Total Incontinence, Unadjusted (%)",baseline to Week 8,43.7%
same,"Patients with at Least 75% Reduction in Total Incontinence, Unadjusted n",baseline to Week 8,176
same,"Total Incontinence 75% responders, Active - Placebo CMH Difference",baseline to Week 8,14.7
same,"Patients with at Least 75% Reduction in Total Incontinence, Adjusted (%)",baseline to Week 12,47.3%
same,"Patients with at Least 75% Reduction in Total Incontinence, Adjusted n",baseline to Week 12,191
same,"Patients with at Least 75% Reduction in Total Incontinence, Unadjusted (%)",baseline to Week 12,50.1%
same,"Patients with at Least 75% Reduction in Total Incontinence, Unadjusted n",baseline to Week 12,202
same,"Total Incontinence 75% responders, Active - Placebo CMH Difference",baseline to Week 12,15.8
same,"UUI, Week 12 LS mean change from baseline (placebo adjusted) (95% CI)","subgroup Age <65 years, vibegron 75 mg or tolterodine ER 4 mg",−0.5 (−0.9 to −0.1)
same,"UUI, Week 12 LS mean change from baseline (placebo adjusted) (95% CI)","subgroup Age ≥65 years, vibegron 75 mg or tolterodine ER 4 mg",−0.8 (−1.2 to −0.3)
same,"UUI, Week 12 LS mean change from baseline (placebo adjusted) (95% CI)","subgroup Age ≥75 years (posthoc analysis), vibegron 75 mg or tolterodine ER 4 mg",−1.6 (−2.4 to −0.8)
same,"UUI, Week 12 LS mean change from baseline (placebo adjusted) (95% CI)","subgroup Females, vibegron 75 mg or tolterodine ER 4 mg",−0.7 (−1.0 to −0.4)
same,"UUI, Week 12 LS mean change from baseline (placebo adjusted) (95% CI)","subgroup Males, vibegron 75 mg or tolterodine ER 4 mg",−0.1 (−0.9 to 0.8)
same,"UUI, Week 12 LS mean change from baseline (placebo adjusted) (95% CI)","subgroup Non-White, vibegron 75 mg or tolterodine ER 4 mg",0.0 (−0.6 to 0.7)
same,"UUI, Week 12 LS mean change from baseline (placebo adjusted) (95% CI)","subgroup Region: Non-US, vibegron 75 mg or tolterodine ER 4 mg",−1.1 (−1.8 to −0.3)
same,"UUI, Week 12 LS mean change from baseline (placebo adjusted) (95% CI)","subgroup Region: US, vibegron 75 mg or tolterodine ER 4 mg",−0.5 (−0.8 to −0.2)
same,"UUI, Week 12 LS mean change from baseline (placebo adjusted) (95% CI)","subgroup White, vibegron 75 mg or tolterodine ER 4 mg",−0.8 (−1.1 to −0.4)
same,"decrease in average number of UUI episodes in 24 hours, times the decrease with placebo",[1],about 1.75 times
same,"decrease in average number of micturitions in 24 hours, more than the decrease with placebo",[1],about 0.7
same,"decrease in average number of micturitions in 24 hours, more than the decrease with placebo","subjects with prior B3 use, vibegron 75 mg, Week 12",about 2.9
same,"total daily incontinence, placebo adjusted, week 2",vibegron 75 mg,−0.7
same,"average volume voided, placebo-adjusted mean change from baseline, week 12",[2],21.2 mL
same,"placebo-adjusted mean total daily incontinence episodes, week 12",[2],−0.7 episodes
same,"proportion of patients (UUI responders) with 75% or more reduction in daily UUI episodes, week 12",[2],49.3%
same,"Micturitions, active-placebo LS mean difference, Week 2",[3],−0.5
same,"Micturitions, active-placebo LS mean difference, Week 4",[3],−0.6
same,"Micturitions, active-placebo LS mean difference, Week 8",[3],−0.6
same,"Micturitions, active-placebo LS mean difference, Week 12",[3],−0.5
same,"Micturitions, average daily number, Week 2 mean",[3],10.18
same,"Micturitions, average daily number, Week 4 mean",[3],9.84
same,"Micturitions, average daily number, Week 8 mean",[3],9.53
same,"Micturitions, average daily number, Week 12 mean",[3],9.32
same,"Micturitions, change from baseline LS mean, Week 2",[3],−0.8
same,"Micturitions, change from baseline LS mean, Week 4",[3],−1.1
same,"Micturitions, change from baseline LS mean, Week 8",[3],−1.4
same,"Micturitions, change from baseline LS mean, Week 12",[3],−1.8
same,"UUI episodes, active-placebo LS mean difference, Week 2",[4],−0.6
same,"UUI episodes, active-placebo LS mean difference, Week 4",[4],−0.7
same,"UUI episodes, active-placebo LS mean difference, Week 8",[4],−0.6
same,"UUI episodes, average daily number, Week 2 mean",[4],2.03
same,"UUI episodes, average daily number, Week 4 mean",[4],1.77
same,"UUI episodes, average daily number, Week 8 mean",[4],1.65
same,"UUI episodes, average daily number, Week 12 mean",[4],1.46
same,"UUI episodes, change from baseline LS mean, Week 2",[4],−1.4
same,"UUI episodes, change from baseline LS mean, Week 4",[4],−1.7
same,"UUI episodes, change from baseline LS mean, Week 8",[4],−1.8
same,"UUI episodes, change from baseline LS mean, Week 12",[4],−2.0
same,"Estimated incidence of subjects with 75% decrease from baseline in UUI episodes, Week 2",[5],24.3
same,"Estimated incidence of subjects with 75% decrease from baseline in UUI episodes, Week 4",[5],26.6
same,"Estimated incidence of subjects with 75% decrease from baseline in UUI episodes, Week 8",[5],41.3
same,"Estimated incidence of subjects with 75% decrease from baseline in UUI episodes, Week 12",[5],52.7
same,"First 75% reduction in UUI episodes, Events/Censored, Week 2",[5],98/305
same,"First 75% reduction in UUI episodes, Events/Censored, Week 4",[5],107/296
same,"First 75% reduction in UUI episodes, Events/Censored, Week 8",[5],166/237
same,"First 75% reduction in UUI episodes, Events/Censored, Week 12",[5],210/193
same,"Overall time to first 75% decrease in UUI episodes, 25th percentile",[5],3.9 weeks
same,"Overall time to first 75% decrease in UUI episodes, 75th percentile",[5],13.1 weeks
same,"Overall time to first 75% decrease in UUI episodes, median (95% CI)",[5],8.4 (8.1 to 12.1) weeks
same,"Time to first 75% decrease in UUI episodes, Events/Censored (overall)",[5],239/164
same,"total daily incontinence, mean change from baseline (reduction)","vibegron 75 mg, after 12 weeks",2.3 episodes
same,"statistically significant onset of action, reduction in urge urinary incontinence (UUI)","vibegron 75 mg/day, FIG. 4",2 weeks
same,"statistically significant onset of action, reduction in micturitions","vibegron 75 mg/day, FIG. 5",2 weeks
same,"statistically significant onset of action, reduction in urgency episodes","vibegron 75 mg/day, FIG. 6",2 weeks
same,"statistically significant onset of action, urge incontinence responder rate","vibegron 75 mg/day, FIG. 7",2 weeks
same,"statistically significant onset of action, reductions in total incontinence episodes","vibegron 75 mg/day, FIG. 9",2 weeks
same,"statistically significant onset of action, improvement in volume voided","vibegron 75 mg/day, FIG. 10",2 weeks

# From patent publication US20230027066A1 (Urovant Sciences GmbH, priority 2019, published 2023)
